Source: patent US10857245B2, “Diagnostic imaging agent for early bone metastasis from cancer” (NIHON MEDI-PHYSICS CO., LTD., priority 2015, dated 2020)

Legend:
[1] = system: bone metastasis from breast cancer cells (MRMT-1); assay: Triple tracer autoradiography in rat models of intertrabecular and osteolytic bone metastasis from breast cancer; type: in vivo; conditions: intertrabecular model day 6 and day 8, osteolytic model day 11 after transplantation; three tracers in an identical rat
Protocol: MRMT-1 suspension was prepared in the same way as the MRMT-1 suspension prepared in Example 1.
A model of intertrabecular bone metastasis was prepared in the same way as the rat model of osteolytic bone metastasis prepared in Example 1 except that a MRMT-1 suspension was injected into right and left saphenous arteries of the 12-week old male SD rat (Japan SLC, Inc.), which was used for the following experiment at day 6 or day 8 after the transplantation. The lesion appeared only in right hind limb of the model at day 6 after the transplantation and left limb of the model at day 8 after the transplantation.
A model of osteolytic bone metastasis was prepared in the same way as the rat model of osteolytic bone metastasis prepared in Example 1 except that the model was produced from 12-week old male SD rat (Japan SLC, Inc.), and used for the following experiment at day 11 after the transplantation. […]

[2] = system: bone metastasis from rat breast cancer cell line MRMT-1; assay: Autoradiography in rat model of osteolytic bone metastasis from breast cancer; type: in vivo; conditions: limb transplanted with MRMT-1 (right hind limb), day 12 to 14 after transplantation; tail vein; sacrifice after 30 minutes (^99mTc-HMDP 2 hours)
Protocol: A rat breast cancer cell line MRMT-1 was obtained from RIKEN BioResource Center. MRMT-1 was subcultured using a medium RPMI1640 (manufactured by Life Technologies Japan Ltd.) with 10% fetal bovine serum (American Type Culture Collection), 100 U/mL penicillin (manufactured by Life Technologies Japan Ltd.), and 0.1 mg/mL streptomycin (manufactured by Life Technologies Japan Ltd). On the day of transplantation, the medium in a culture vessel was removed and Trypsin-EDTA solution (manufactured by Life Technologies Japan Ltd.) maintained at 37° C. was added to the culture vessel, which was left to stand at 37° C. for about 5 minutes. After MRMT-1 was detached from the surface of the culture vessel, the above-mentioned medium was added to the culture vessel in an amount equal to that of Trypsin-EDTA solution. MRMT-1 was precipitated by centrifugation (800 rpm, 5 min) and its supernatant was removed, and a cell suspension in which MRMT-1 was suspended in Hank's buffer (manufactured by Life Technologies Japan Ltd.) at a concentration of 2.5×10^5 cells/mL was then produced.
An anti-inflammatory analgesic, Metacam 0.5% Solution for Injection (manufactured by Boehringer Ingelheim Vetmedica Japan Co., Ltd.) was subcutaneously injected into the groin of the right hind limb of 9-week-old male SD rat (Japan SLC, Inc.) at a rate of 0.2 mg/kg under isoflurane (manufactured by Mylan) anesthesia, and the skin in the groin was then incised. Next, the saphenous artery, the saphenous vein and the nerve parallel thereto were removed from muscles and isolated, and a surgical suture (3-0) was passed under the saphenous artery in the portion distal to the popliteal artery bifurcation. In addition, tissues around the superficial epigastric artery bifurcation were removed and a surgical suture (3-0) was passed under the femoral artery between the superficial epigastric artery bifurcation and the popliteal artery bifurcation (the portion slightly distal to the superficial epigastric artery bifurcation). Subsequently, a few drops of Papaverine Hydrochloride Injection 40 mg (manufactured by Nichi-Iko Pharmaceutical Co., Ltd.) was added dropwise around the saphenous artery to relax vascular smooth muscle, and each end of the surgical suture passed under the saphenous artery and the femoral artery was picked up with forceps, and the saphenous artery and the femoral artery were lifted to compress the arteries. A cotton swab was put under the saphenous artery to retain the saphenous artery, and an injection needle was inserted from the distal portion of the saphenous artery in the central direction, and MRMT-1 suspension (0.1 mL) was slowly injected. […]

[3] = system: bone metastasis from prostate cancer; assay: PET/CT imaging of patient with prostate cancer, compared with bone scintigraphy and whole body contrast enhanced CT; conditions: untreated patient with prostate cancer; 263.1 MBq intravenously; whole body PET finished by 30 minutes
[4] = system: bone metastasis from breast cancer; conditions: human, in vivo; cited from earlier work

N[14C]1(C(=O)O)CC(F)C1 (stereo not drawn) [^14C-fluciclovine, trans-1-amino-3-fluorocyclobutane-1-[^14C]carboxylic acid]
accumulation in the early focal site of bone metastasis (autoradiogram) [1]: accumulated
accumulation in bone metastasis in the osteolytic lesion area (autoradiogram, arrow A) [2]: accumulated
accumulation in bone metastasis prior to the formation of osteolytic lesion, not detectable in X-ray image (autoradiogram, arrow B) [2]: also accumulated

N[C@]1(C(=O)O)C[C@@H](F)C1 [^18F-fluciclovine, trans-1-amino-[^18F]fluorocyclobutanecarboxylic acid]
visualization of lesions which were not visualized on bone scintigraphy and whole body contrast enhanced CT [3]: visualized

technetium[^99mTc]hydroxymethylene diphosphonate [^99mTc-HMDP]
accumulation in the early focal site of bone metastasis (autoradiogram) [1]: no accumulation
combined sensitivity of all sites [4]: 78.2%
detection rate of osteoblastic bone metastasis [4]: 100%
detection rate of osteolytic bone metastasis [4]: 70.0%
accumulation in bone metastasis in the osteolytic lesion area (autoradiogram, arrow A) [2]: observed in neither
accumulation in bone metastasis prior to the formation of osteolytic lesion, not detectable in X-ray image (autoradiogram, arrow B) [2]: observed in neither
